# Measurements from patent EP4796540A2, “N-SULFONAMIDE NITROGEN-CONTAINING FUSED HETEROCYCLIC COMPOUND, AND APPLICATION THEREOF” (priority 2023, dated 2025).
# Where “and” joins values, the source holds several entries; their conditions need not be identical. Equal entries are not always repeated.
# How the values were obtained:
# [1] = system: human gastric cancer NUGC-3 xenograft; assay: In vivo efficacy study in human gastric cancer NUGC-3 xenograft rat model; parameters: species or system B-Rag2/IL2rg KO SD rats; conditions: QD × 28 days, p.o., rats
# Procedure: 1. Experimental purpose: To test the in vivo anti-tumor activity of compounds in the subcutaneous human gastric cancer NUGC-3 xenograft model in female B-Rag2/IL2rg KO SD rats. 2. Experimental materials: Animals: 7 to 9 weeks old female B-Rag2/IL2rg KO SD rats; Reagents:
# Vehicle: 5% DMSO/10% Solutol HS 15/85% pH 4.65 ± 0.10 acetate buffer;
# Cell culture: NUGC-3 cells were cultured in RPMI-1640 medium containing 10% FBS.
# Molding and grouping: NUGC-3 cells in the exponential growth phase (1 × 10^7) were harvested, resuspended in 0.2 mL of PBS and Matrigel (1:1), and then inoculated subcutaneously into the right flank of B-Rag2/IL2rg KO SD rats to establish a subcutaneous xenograft model. Rats were observed daily for healthy status and tumor growth after cell inoculation. On the 10th day after inoculation, 24 animals were selected, grouped, and the tumor volume of the animals in the group was approximately 199.0 mm^3. The study was divided into 4 groups, with 6 rats in each group, and the administration was performed on the same day (see Table 12).
# 4. Experimental design: Table 12 is the grouping and administration information for the efficacy study. Rats in the G1 group were orally administered vehicle control (5% DMSO/10% Solutol HS 15/85% pH 4.65 ± 0.10 acetate buffer) once a day for a total of 28 days. Rats in the G2 group were orally administered Cpd-2 once a day at a dose of 6.25 mg/kg for a total of 28 days. Rats in the G3 group were orally administered Cpd-2 once a day at a dose of 12.5 mg/kg for a total of 28 days. Rats in the G4 group were orally administered Cpd-2 once a day at a dose of 25 mg/kg for a total of 28 days. Table 12. In vivo efficacy study design of NUGC-3 xenograft rat model
# Experimental observation: The health status and mortality of the animals were monitored daily. Routine checks included the effect of tumor growth and drug treatment on animals' normal behavior such as mobility, food and water consumption, body weight gain/loss, eye/hair matting and any other abnormal effect. The number of deaths and side effects of the animals in the group were recorded based on the number of the animals in each group. Clinical symptoms observed during the trial were recorded in the raw data. Tumor volume calculation formula: Tumor volume (mm^3) = 0.5 × (tumor long diameter × tumor short diameter^2). During the research process, the entire administration process as well as tumor and body weight measurements were conducted in a Laminar Flow Cabinet.
# Data processing: Percentage of tumor growth inhibition TGITV (%): TGITV % = (1 - ΔT/ΔC) × 100%; Wherein ΔC is the tumor volume Ct - C0 for the control group, C0 is the average tumor volume of the control group at the time of grouping, and Ct is the average tumor volume of the control group after treatment; ΔT is the tumor volume Tt - T0 for the treatment group, T0 is the average tumor volume of the treatment group at the time of grouping, and Tt is the average tumor volume of the treatment group after treatment.
# Statistical analysis: Tumor volume and animal body weight results are expressed in Mean ± SEM. Tumor volumes between different groups were statistically compared and analyzed. All statistical analyses were completed in https://d2k.bio/Efficacy/Invivo. The wilcox.test nominal method was used to compare whether there was a significant difference in tumor volume or tumor weight between groups, where p ≥ 0.05 was considered as having no significant difference, p < 0.05 was considered as having a significant difference, and p < 0.01 was considered as having an extremely significant difference.
# [2] = In vivo pharmacokinetic study in mice; conditions: mouse, plasma; CD-1 mice (male), IV 1 mg/kg; read-out: Clint
# Procedure: 1. Experimental purpose: To test the pharmacokinetics of compounds in CD-1 mice. 2. Experimental instrument and materials: Animals: CD-1 mice (male) Instrument: Intravenous injection: 40% HP-β-CD in water; intragastric administration: 0.2% HPC + 0.5% Tween80 in water. 6 male mice. Fasting treatment was performed in the evening before the administration, with free access to water. During the experiment, the mice were allowed to eat and drink freely, and administered by intravenous injection or gavage. After administration, the animal status was observed, and abnormal behaviors were recorded. Blood was collected from the orbit at 0.0833, 0.25, 1, 2, 4, 8, and 24 hours after intravenous injection, and at 0.25, 0.5, 1, 2, 4, 6, 8, and 24 hours after intragastric administration. 20 µL of plasma sample was taken and added with 250 µL of acetonitrile (containing dexamethasone as an internal standard) to precipitate proteins. The mixture was centrifuged at 4°C and 4000 rpm for 20 minutes, and 180 µL of the supernatant was taken and mixed with 180 µL of an aqueous solution containing 0.1% formic acid in a 96-well plate. […] Unknown samples were calculated by the standard curve. Pharmacokinetic parameters were calculated by the non-compartmental analysis model of WinNonlin 8.2 software and were presented in a report, including Clint, Cmax, AUC, etc. […]
smiles,measurement,setting,value
"[2H]C([2H])([2H])Oc1nc(C(=O)NS(C)(=O)=O)ccc1NCC#Cc1cc2c(N[C@@H]3CCN(C)C[C@@H]3F)cccn2c1CC(F)(F)F [Cpd-2, 5-((3-(8-(((3S,4R)-3-Fluoro-1-methylpiperidin-4-yl)amino)-3-(2,2,2-trifluoroethyl)indolizin-2-yl)prop-2-yn-1-yl)amino)-6-(methoxy-d3)-N-(methylsulfonyl)picolinamide]",TGITV (%) (at 28 days),[1]; 6.25 mg/kg,92.9%
same,Tumor volume (mm^3) (Mean ± SEM) (at 28 days),[1]; 6.25 mg/kg,395.0 mm^3 and 395.0 ± 63.1 mm^3
same,TGITV (%) (at 28 days),[1]; 12.5 mg/kg,102.9%
same,Tumor volume (mm^3) (Mean ± SEM) (at 28 days),[1]; 12.5 mg/kg,119.2 mm^3 and 119.2 ± 10.2 mm^3
same,TGITV (%) (at 28 days),[1]; 25 mg/kg,104.7%
same,Tumor volume (mm^3) (Mean ± SEM) (at 28 days),[1]; 25 mg/kg,70.1 mm^3 and 70.1 ± 14.9 mm^3
same,clearance,[2],15 mL/min/kg
